What was measured:
[1] = biological target: AMP-activated protein kinase, AMPK (Homo sapiens) (UniProt P54646+O43741+P54619+Q9UGJ0+Q9Y478+Q13131+Q9UGI9); experiment: (§1) Activation of recombinant human AMPK by FRET assay
[2] = biological target: AMP-activated protein kinase, AMPK; experiment: as §1

Row | SMILES | pEC200 [1] | pEC50 [2]
1 | COc1cccc(-c2ccc(-c3cc4c(O)c(-n5cccn5)c(=O)[nH]c4cc3Cl)cc2)c1 | < 5 | < 5.5
2 | Cc1ccn(-c2c(O)c3cc(-c4ccc(N5CCCC5)cc4)c(Cl)cc3[nH]c2=O)n1 | < 5 | < 5.5
3 | Cc1nc(-c2c(O)c3cc(-c4ccc(N(C)C)cc4)c(Cl)cc3[nH]c2=O)c(C)s1 | < 5 | < 5.5

Results, then the compound that gave them:

Row | pEC200 [1] | pEC50 [2] | SMILES
4 | < 5 | < 5.5 | Cc1cc(-c2c(O)c3cc(-c4ccc(N(C)C)cc4)c(Cl)cc3[nH]c2=O)no1
5 | < 5 | < 5.5 | Cc1nc(-c2c(O)c3cc(-c4ccc(N5CCCCC5)cc4)c(Cl)cc3[nH]c2=O)cs1

From ChEMBL document CHEMBL2150967, “Novel Quinolinones as Activators of AMP Activated Protein Kinase: Patent Highlight” (ACS Med Chem Lett, 2012)
